Assay results taken from patent US20240317748A1, “CARBONYL SUBSTITUTED DIAZASPIRO COMPOUNDS AND ITS USE” (BIONOVA PHARMACEUTICALS (SHANGHAI) LIMITED, priority 2021, published 2024).
pIC50: −log10 of the molar value.

Legend:
MV-4-11 cells = test: Cell proliferation assay (CellTiter-Glo), MV-4-11; type: cell-based, human; settings: Homo sapiens, MV4-11, 96 h; MV-4-11 (MLL-AF4), 4 days incubation; read-out: Cell antiproliferation assay MV-4-11 IC50
Experimental: The antiproliferative activity of test compounds was assessed in human leukemia cell lines. The cell line MV4-11, MOLM13 and OCI-AML3, which expresses the MLL fusion protein MLL-AF4, MLL-AF9 and carry the NPM1c gene mutation, respectively, were tested. HL-60 was used as a control cell line containing two MLL wildtype alleles in order to exclude compounds that display general cytotoxic effect. MV4-11 cells were cultured in IMDM supplemented with 10% FBS, MOLM13 and OCI-AML3 cells were cultured in RPMI1640 supplemented with 20% FBS, and HL-60 cells were cultured in IMDM supplemented with 20% FBS. Corresponding cells (MV4-11, MOLM13, OCI-AML3 or HL-60 cell line) were seeded in 100 uL medium per well in 96-well plate (white wall with clear bottom, tissue culture treated, Corning, Cat. No. CLS3903; Lot.No. 30419025). Plates were placed in the CO2 incubator overnight. Compounds solution (2 mM starting, 4-fold serial dilution) were prepared and added to the wells containing 100 μL of the culture medium with HPD300 according to the plate map and centrifuge at 1000 rpm for 1 minutes (200-fold dilution totally). MV4-11, MOLM13, OCI-AML3 and HL-60 cells were incubated with the compounds for 4, 12, 5 and 4 days, respectively, under 5% CO2 at 37° C., respectively. 100 μL of CellTiter-Glo reagent (Promega, Cat. No. G7573, Lot. No. 0000416710) was added to the assay plate by Multidrop Combi instrument, contents were mixed for 10 minutes on an orbital shaker to induce cell lysis. After incubation at room temperature for 10 mins, clear bottom with white back seal was pasted and luminescence with Envision was read.

Menin-MLL1 = biological target: T1, Menin-MLL1 (Homo sapiens, UniProt O00255); test: Menin-MLL1 inhibition assay (fluorescence polarization, Menin protein + FAM-MLL peptide); type: binding; settings: Menin (2-610) isoform 2, FAM-labelled MLL peptide, mP readout; read-out: Biochemical assay Menin-MLL1 IC50
T1 construct: Menin (2-610) isform2; purchased ChemPartner 2020111101
T1 sequence (O00255 2-610): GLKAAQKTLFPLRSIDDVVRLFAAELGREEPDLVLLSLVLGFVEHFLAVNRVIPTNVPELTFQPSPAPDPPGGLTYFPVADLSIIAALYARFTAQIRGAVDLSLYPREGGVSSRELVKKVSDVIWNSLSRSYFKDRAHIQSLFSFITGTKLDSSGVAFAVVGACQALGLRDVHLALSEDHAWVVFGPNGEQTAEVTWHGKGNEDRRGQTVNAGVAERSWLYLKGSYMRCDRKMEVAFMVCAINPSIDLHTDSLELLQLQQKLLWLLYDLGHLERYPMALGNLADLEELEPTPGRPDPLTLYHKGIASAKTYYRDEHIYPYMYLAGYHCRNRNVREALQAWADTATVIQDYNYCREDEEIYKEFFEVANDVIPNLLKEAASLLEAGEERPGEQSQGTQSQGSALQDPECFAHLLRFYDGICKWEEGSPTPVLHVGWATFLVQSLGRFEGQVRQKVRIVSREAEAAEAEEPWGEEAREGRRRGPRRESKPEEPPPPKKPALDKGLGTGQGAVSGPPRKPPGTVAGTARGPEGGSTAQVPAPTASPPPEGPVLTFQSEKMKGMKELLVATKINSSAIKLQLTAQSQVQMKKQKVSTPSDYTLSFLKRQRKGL
Experimental: 1× assay bu9ffer (Tris 7.5 50 mM, NaCl 50 mM, DTT 1 mM, Tween-20 0.01%) was prepared and test compounds solution (10 mM in DMSO, Sigma, Cat. No. 34869) were transferred to assay plate (384-well plate, Perkin Elmer, Cat. No. 6007279) by Echo. The final fraction of DMSO is 1%. 20 nM of Menin protein (Menin (2-610) isform2, ChemPartner, Cat. No. 2020111101) in 1× assay buffer was added to prepare 2× enzyme solution. Then 10 nM of MLL-peptide (Ac-SRWRFPARPGTGRR-Ahx-Ahx-K(FAM)-NH2, GL Biochem (Shanghai)), Cat. No. 833831/202009220104) in 1× assay buffer was added to prepare 2× substrate solution. 10 μL of 2× enzyme solution was transferred to assay plate or 10 μL of 1× assay buffer for low control group. 10 μL of 2× substrate solution was added to each well to start reaction. mP data on Envision (Ex480/Em535(s), Em535(p)) was collected.
Compound potencies were determined by first calculating % inhibition at each compound concentration according to equation 1:
Inhibition %=(Max−Signal)/(Max−Min)*100 (Equation 1)
Y=Bottom+(Top-Bottom)/(1+(IC50/X)[…]), where Y is % inhibition and X is compound concentration (Equation 2)

| Structure (SMILES) | pIC50 (MV-4-11 cells) | pIC50 (Menin-MLL1) |
| --- | --- | --- |
| CCN(C(=O)c1cc(F)ccc1Oc1cncnc1N1CC2(CCN(C(=O)[C@H]3NCC[C@H]3C)CC2)C1)C(C)C [Example 40] | 7.58 | 8.27 |
| CC(C)n1ncnc1-c1cc(F)ccc1Oc1cncnc1N1CC2(CCN(C(=O)[C@@H]3C[C@@H](F)CN3)CC2)C1 [Example 43] | 6.77 | 8.32 |
| CCN(C(=O)c1cc(F)ccc1Oc1cncnc1N1CC2(CCN(C(=O)[C@H]3NCc4c3cnn4Cc3ccccc3)CC2)C1)C(C)C [Example 44] | 7.51 | 8.41 |
| CC(C)N(CC(F)F)C(=O)c1cc(F)ccc1Oc1cncnc1N1CC2(CCN(C(=O)[C@@H]3C[C@@H](F)CN3)CC2)C1 [Example 45] | 7.44 | 8.47 |
| CCN(C(=O)c1cc(F)ccc1Oc1cncnc1N1CCC2(CC1)CN(C(=O)[C@@H]1C[C@@H](F)CN1)C2)C(C)C [Example 46] | 6.31 | 8.11 |
| CCN(C(=O)c1cc(F)ccc1Oc1cncnc1N1CC2(CCN(C(=O)[C@@H]3C[C@@H](c4ccccc4)CN3)CC2)C1)C(C)C [Example 48] | 6.84 | 7.94 |
| COCCN(C(=O)c1cc(F)ccc1Oc1cncnc1N1CC2(CCN(C(=O)[C@@H]3C[C@@H](F)CN3)CC2)C1)C(C)C [Example 50] | 6.92 | 8.36 |
| C[C@@H]1COCCN1C(=O)c1cc(F)ccc1Oc1cncnc1N1CC2(CCN(C(=O)[C@@H]3C[C@@H](F)CN3)CC2)C1 [Example 51] | 6.66 | 8.37 |
| C[C@H]1COCCN1C(=O)c1cc(F)ccc1Oc1cncnc1N1CC2(CCN(C(=O)[C@@H]3C[C@@H](F)CN3)CC2)C1 [Example 53] | 6.10 | 7.96 |
| CCN(C(=O)c1cc(F)ccc1Oc1cncnc1N1CC2(CCN(C(=O)[C@H]3NCc4[nH]ncc43)CC2)C1)C(C)C [Example 54] | 6.23 | 8.37 |
| O=C([C@@H]1C[C@@H](F)CN1)N1CCC2(CC1)CN(c1ncncc1Oc1ccc(F)cc1C(=O)N1C3CCC1COC3)C2 [Example 59] | 6.80 | 8.26 |
| CCN(C(=O)c1cc(F)ccc1Oc1nncnc1N1CC2(CCN(C(=O)[C@@H]3CC(CC#N)CN3)CC2)C1)C(C)C (some centres unmarked) [Example 61] | 6.81 | 8.21 |
| CCN(C(=O)c1cc(F)ccc1Oc1nncnc1N1CC2(CCN(C(=O)[C@@H]3NCCC3(C)C)CC2)C1)C(C)C [Example 66] | 6.51 | 7.96 |
| CC[C@@H]1CCN[C@H]1C(=O)N1CCC2(CC1)CN(c1ncnnc1Oc1ccc(F)cc1C(=O)N(CC)C(C)C)C2 [Example 71] | 5.90 | 7.80 |
| CC(C)N(C(=O)c1cc(F)ccc1Oc1nncnc1N1CC2(CCN(C(=O)[C@@H]3C[C@@H](C)CN3)CC2)C1)C(C)C [Example 73] | 7.66 | 8.39 |
| CC(C)n1ncc(Cl)c1-c1cc(F)ccc1Oc1nncnc1N1CC2(CCN(C(=O)[C@@H]3C[C@@H](F)CN3)CC2)C1 [Example 75] | 7.39 | 8.24 |
| CC(C)N(C(=O)c1cc(F)ccc1Oc1nncnc1N1CC2(CCN(C(=O)[C@H]3NCC[C@H]3C)CC2)C1)C(C)C [Example 76] | 7.78 | 8.43 |

| Structure (SMILES) | pIC50 (MV-4-11 cells) | pIC50 (Menin-MLL1) |
| --- | --- | --- |
| CCN(C(=O)c1cc(F)ccc1Oc1nncnc1N1CC2(CCN(C(=O)[C@@H]3NCC[C@H]3CF)CC2)C1)C(C)C [Example 89] | 6.00 | 7.62 |
| CCN(C(=O)c1cc(F)ccc1Oc1nnc(Cl)nc1N1CC2(CCN(C(=O)[C@H]3NC[C@@H]4C[C@@H]43)CC2)C1)C(C)C [Example 91] | 6.61 | 8.14 |
| CCN(C(=O)c1cc(F)ccc1Oc1nncnc1N1CC2(CCN(C(=O)[C@H]3NC[C@H](C)[C@@H]3C)CC2)C1)C(C)C [Example 92] | 7.73 | 8.10 |
| CCN(C(=O)c1cc(F)ccc1Oc1nncnc1N1CC2(CCN(C(=O)[C@@H]3NC[C@@H](C)[C@H]3C)CC2)C1)C(C)C [Example 93] | 6.34 | 7.61 |
| N#Cc1ccc(-c2cc(F)ccc2Oc2nncnc2N2CC3(CCN(C(=O)[C@H]4NC[C@@H]5C[C@@H]54)CC3)C2)c(C2CC2)n1 [Example 94] | 7.93 | 8.47 |
| CC1(C)[C@@H]2[C@@H](C(=O)N3CCC4(CC3)CN(c3ncnnc3Oc3ccc(F)cc3-c3ccc(C#N)nc3C3CC3)C4)NC[C@@H]21 [Example 95] | 8.26 | 8.60 |
| CO[C@H]1CCN[C@@H]1C(=O)N1CCC2(CC1)CN(c1ncnnc1Oc1ccc(F)cc1-c1ccc(C#N)cc1C1CC1)C2 [Example 96] | 8.25 | 8.40 |
| CCN(C(=O)c1cc(F)ccc1Oc1nncnc1N1CC2(CCN(C(=O)[C@H]3NCC[C@@H]3C(F)F)CC2)C1)C(C)C [Example 99a, 2-((5-(7-((2S,3S)-3-(difluoromethyl)pyrrolidine-2-carbonyl)-2,7-diazaspiro[3.5]nonan-2-yl)-1,2,4-triazin-6-yl)oxy)-N-ethyl-5-fluoro-N-isopropylbenzamide] | 7.33 | 8.27 |
| CCN(C(=O)c1cc(F)ccc1Oc1nncnc1N1CC2(CCN(C(=O)[C@@H]3NCC[C@H]3C(F)F)CC2)C1)C(C)C [Example 99b, 2-((5-(7-((2R,3R)-3-(difluoromethyl)pyrrolidine-2-carbonyl)-2,7-diazaspiro[3.5]nonan-2-yl)-1,2,4-triazin-6-yl)oxy)-N-ethyl-5-fluoro-N-isopropylbenzamide] | 5.71 | 7.37 |
| CCN(C(=O)c1cc(F)ccc1Oc1nncnc1N1CC2(CCN(C(=O)[C@H]3NCC[C@@H]3C3CC3)CC2)C1)C(C)C [Example 100a] | 8.16 | 8.57 |
| CCN(C(=O)c1cc(F)ccc1Oc1nncnc1N1CC2(CCN(C(=O)[C@@H]3NCC[C@H]3C3CC3)CC2)C1)C(C)C [Example 100b] | 6.55 | 7.93 |
| CO[C@H]1CCN[C@@H]1C(=O)N1CCC2(CC1)CN(c1ncnnc1Oc1ccc(F)cc1-c1ccc(C#N)nc1C1CC1)C2 [Example 101] | 8.17 | 8.22 |
| [2H]C([2H])(C)N(C(=O)c1cc(F)ccc1Oc1nncnc1N1CC2(CCN(C(=O)[C@H]3NC[C@@H]4CCC[C@@H]43)CC2)C1)C(C)C [Example 102] | 8.34 | 8.27 |
| O=C([C@H]1NC[C@@H]2CCC[C@@H]21)N1CCC2(CC1)CN(c1ncnnc1Oc1ccc(F)cc1-c1cccnc1C1CC1)C2 [Example 103] | 8.82 | 8.36 |
| CC(C)N(CCO)C(=O)c1cc(F)ccc1Oc1nncnc1N1CC2(CCN(C(=O)[C@H]3NC[C@@H]4CCC[C@@H]43)CC2)C1 [Example 104] | 7.57 | 8.35 |
| CC(C)N(CC(F)F)C(=O)c1cc(F)ccc1Oc1nncnc1N1CC2(CCN(C(=O)[C@H]3NC[C@@H]4CCC[C@@H]43)CC2)C1 [Example 105] | 7.77 | 8.40 |
| O=C([C@H]1NC[C@@H]2CCC[C@@H]21)N1CCC2(CC1)CN(c1ncnnc1Oc1ccc(F)cc1-c1ccc(=O)[nH]c1C1CC1)C2 [Example 106] | 8.03 | 8.70 |
